Legend:
[1] = target: D(2) dopamine receptor (Bos taurus) (UniProt P20288); assay: Low percent binding affinity for different states of the Dopamine D-2 receptor in bovine anterior pituitary membranes, using radioligand [3H]spiroperidol; assay type: cell membranes
[2] = target: T1, D(2) dopamine receptor (Bos taurus, UniProt P20288); assay: Low binding affinity for dopamine D-2 receptor from bovine anterior pituitary membrane, using radioligand [3H]spiroperidol in bovine anterior pituitary membranes; assay type: cell membranes
[3] = target: T1, D(2) dopamine receptor; assay: Low binding affinity for dopamine receptor D2 from bovine anterior pituitary membrane, using radioligand [3H]spiroperidol in bovine anterior pituitary membranes; assay type: cell membranes
[4] = target: D(2) dopamine receptor (Bos taurus) (UniProt P20288); assay: Low percent binding affinity for different states of the dopamine receptor D2 in bovine anterior pituitary membranes, using radioligand [3H]spiroperidol; assay type: cell membranes
[5] = target: T1, D(2) dopamine receptor; assay: Low binding affinity for dopamine D-2 receptor from bovine anterior pituitary membrane, using radioligand [3H]spiroperidol
[6] = target: D(2) dopamine receptor (Bos taurus) (UniProt P20288); assay: High percent binding affinity for different states of the Dopamine receptor D2 in bovine anterior pituitary membranes, using radioligand [3H]spiroperidol
[7] = target: T1, D(2) dopamine receptor; assay: High binding affinity for dopamine D-2 receptor from bovine anterior pituitary membrane, using radioligand [3H]spiroperidol
[8] = target: T1, D(2) dopamine receptor; assay: High binding affinity for dopamine D-2 receptor from bovine anterior pituitary membrane, using radioligand [3H]spiroperidol in bovine anterior pituitary membranes; assay type: cell membranes

T1 sequence (P20288 whole entry): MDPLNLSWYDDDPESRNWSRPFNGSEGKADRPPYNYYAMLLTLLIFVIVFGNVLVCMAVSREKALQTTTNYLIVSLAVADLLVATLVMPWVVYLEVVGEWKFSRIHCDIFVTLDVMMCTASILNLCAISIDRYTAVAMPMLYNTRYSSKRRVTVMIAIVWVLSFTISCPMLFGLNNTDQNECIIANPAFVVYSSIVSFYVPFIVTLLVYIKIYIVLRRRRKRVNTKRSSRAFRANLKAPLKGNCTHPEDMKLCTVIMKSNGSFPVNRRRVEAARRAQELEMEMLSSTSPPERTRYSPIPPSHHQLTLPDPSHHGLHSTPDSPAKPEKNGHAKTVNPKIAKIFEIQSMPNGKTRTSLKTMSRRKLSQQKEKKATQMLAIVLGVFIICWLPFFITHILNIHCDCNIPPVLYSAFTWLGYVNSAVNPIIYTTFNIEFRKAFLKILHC
D(2) dopamine receptor (Bos taurus), sequence (P20288 whole entry): as above

| Compound | Low [1] | Ki [5] | Percent of receptors in high-affinity state [6] | also measured |
| --- | --- | --- | --- | --- |
| CCCN1C[C@H](CC#N)C[C@@H]2c3cccc(O)c3CC[C@H]21 | 100% | – | – | Ki [2]: 5390 nM |
| CCCN1C[C@H](CSC)C[C@@H]2c3cccc(O)c3CC[C@H]21 | – | – | – | Ki [3]: 250 nM; Low [4]: 100% |
| CCCN1C[C@H](C)C[C@@H]2c3cccc(O)c3CC[C@H]21 | 100% | – | – | – |
| CCCN1C[C@H](CSC)C[C@@H]2c3ccc(O)c(O)c3CC[C@H]21 | 100% | 1730 nM | – | – |
| CCCN1C[C@H](C)C[C@@H]2c3cc(O)ccc3CC[C@H]21 | 87% | 1940 nM | 13% | Ki [7]: 8 nM |
| CCCN1C[C@H](CC#N)C[C@@H]2c3cc(O)c(O)cc3CC[C@H]21 | 56% | 360 nM | 44% | Ki [7]: 6 nM |
| CCCN1C[C@H](CSC)C[C@@H]2c3cc(O)ccc3CC[C@H]21 | 79% | – | 21% | Ki [2]: 1210 nM; Ki [8]: 14 nM |
| NCCc1ccc(O)c(O)c1 | 69% | – | – | High [6]: 31% |
| CCCN1C[C@H](CC#N)C[C@@H]2c3cc(O)ccc3CC[C@H]21 | 70% | – | 30% | Ki [2]: 280 nM; Ki [8]: 4 nM |
| CCCN1C[C@H](CSC)C[C@@H]2c3cc(O)c(O)cc3CC[C@H]21 | 67% | – | 33% | – |
| CCCN1C[C@H](CC#N)C[C@@H]2c3ccc(O)c(O)c3CC[C@H]21 | 100% | 1460 nM | – | – |

Reference: ChEMBL document CHEMBL1124469, “Synthesis and dopaminergic activity of 2-substituted octahydrobenzo[f]quinolines” (J Med Chem, 1989)
